From the kinase profiling compilation of Christmann-Franck et al. (2016)

Columns and labels:
Experiment in all cases: radiometric filter-binding kinase assay
[1] = biological target: AURKB (human) (UniProt Q96GD4)
[2] = biological target: BRSK2 (human) (UniProt Q8IWQ3)
[3] = biological target: CAMKK2 (human) (UniProt Q96RR4)
[4] = biological target: CHEK1 (human) (UniProt O14757)
[5] = biological target: CLK2 (human) (UniProt P49760)
[6] = biological target: CSNK2A1 (human) (UniProt P68400)
[7] = biological target: CaMK1 (human) (UniProt Q14012)
[8] = biological target: DAPK1 (human) (UniProt P53355)
[9] = biological target: DYRK1A (human) (UniProt Q13627)
[10] = biological target: DYRK3 (human) (UniProt O43781)
[11] = biological target: EPHB2 (human) (UniProt P29323)
[12] = biological target: FGFR1 (human) (UniProt P11362)
[13] = biological target: GCK (human) (UniProt Q12851)
[14] = biological target: HIPK1 (human) (UniProt Q86Z02)
[15] = biological target: HIPK2 (human) (UniProt Q9H2X6)
[16] = biological target: IGF1R (human) (UniProt P08069)
[17] = biological target: JAK2 JH1 JH2 (human) (UniProt O60674)
[18] = test system: LCK (mouse); settings: accession and sequence are those of the human protein
[19] = biological target: MAPK10 (human) (UniProt P53779)
[20] = biological target: MAPK11 (human) (UniProt Q15759)
[21] = biological target: MAPK13 (human) (UniProt O15264)
[22] = biological target: MAPK8 (human) (UniProt P45983)
[23] = biological target: MAPKAPK5 (human) (UniProt Q8IW41)
[24] = biological target: MARK3 (human) (UniProt P27448)
[25] = biological target: MINK1 (human) (UniProt Q8N4C8)
[26] = biological target: MKNK1 (human) (UniProt Q9BUB5)
[27] = test system: PAK2 (human), Q13177 [T402E]
[28] = biological target: PHKG1 (human) (UniProt Q16816)
[29] = biological target: PIM3 (human) (UniProt Q86V86)
[30] = test system: ROCK2 (rat); settings: accession and sequence are those of the human protein
[31] = test system: SGK1 (human), O00141 [S422D]
[32] = biological target: SRPK1 (human) (UniProt Q96SB4)
[33] = biological target: STK3 (human) (UniProt Q13188)
[34] = biological target: TAOK1 (human) (UniProt Q7L7X3)
[35] = biological target: TBK1 (human) (UniProt Q9UHD2)
[36] = biological target: YES1 (human) (UniProt P07947)
Chain of YES1 (human) (P07947 whole entry, looked up): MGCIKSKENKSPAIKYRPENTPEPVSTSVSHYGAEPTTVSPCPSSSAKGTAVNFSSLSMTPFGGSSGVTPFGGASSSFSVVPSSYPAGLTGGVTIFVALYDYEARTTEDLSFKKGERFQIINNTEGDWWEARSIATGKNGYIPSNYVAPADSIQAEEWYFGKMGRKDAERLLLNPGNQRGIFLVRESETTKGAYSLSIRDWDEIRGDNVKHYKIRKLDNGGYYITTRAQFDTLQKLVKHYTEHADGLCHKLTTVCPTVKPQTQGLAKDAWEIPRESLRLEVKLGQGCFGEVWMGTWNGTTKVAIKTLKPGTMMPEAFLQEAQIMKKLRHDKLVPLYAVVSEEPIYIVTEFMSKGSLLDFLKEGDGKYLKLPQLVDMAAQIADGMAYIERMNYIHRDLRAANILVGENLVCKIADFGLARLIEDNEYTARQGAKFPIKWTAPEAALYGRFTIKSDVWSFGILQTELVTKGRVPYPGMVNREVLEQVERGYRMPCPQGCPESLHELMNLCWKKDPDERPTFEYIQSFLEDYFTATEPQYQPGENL

Chain of MAPKAPK5 (human) (Q8IW41 whole entry, looked up): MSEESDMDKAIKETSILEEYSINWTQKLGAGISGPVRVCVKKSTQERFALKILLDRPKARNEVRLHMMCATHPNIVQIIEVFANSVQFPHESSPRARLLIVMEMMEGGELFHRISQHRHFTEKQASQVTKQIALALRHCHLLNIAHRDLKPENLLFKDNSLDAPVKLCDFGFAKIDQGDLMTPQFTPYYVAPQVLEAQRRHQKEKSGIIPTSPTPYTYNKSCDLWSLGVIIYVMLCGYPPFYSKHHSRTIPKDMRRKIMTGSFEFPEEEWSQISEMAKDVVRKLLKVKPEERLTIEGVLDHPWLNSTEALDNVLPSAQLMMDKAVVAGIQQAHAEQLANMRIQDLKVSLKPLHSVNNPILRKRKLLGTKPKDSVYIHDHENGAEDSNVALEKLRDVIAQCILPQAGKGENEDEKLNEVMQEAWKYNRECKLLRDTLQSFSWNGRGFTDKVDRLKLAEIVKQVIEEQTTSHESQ
Chain of MARK3 (human) (P27448 whole entry, looked up): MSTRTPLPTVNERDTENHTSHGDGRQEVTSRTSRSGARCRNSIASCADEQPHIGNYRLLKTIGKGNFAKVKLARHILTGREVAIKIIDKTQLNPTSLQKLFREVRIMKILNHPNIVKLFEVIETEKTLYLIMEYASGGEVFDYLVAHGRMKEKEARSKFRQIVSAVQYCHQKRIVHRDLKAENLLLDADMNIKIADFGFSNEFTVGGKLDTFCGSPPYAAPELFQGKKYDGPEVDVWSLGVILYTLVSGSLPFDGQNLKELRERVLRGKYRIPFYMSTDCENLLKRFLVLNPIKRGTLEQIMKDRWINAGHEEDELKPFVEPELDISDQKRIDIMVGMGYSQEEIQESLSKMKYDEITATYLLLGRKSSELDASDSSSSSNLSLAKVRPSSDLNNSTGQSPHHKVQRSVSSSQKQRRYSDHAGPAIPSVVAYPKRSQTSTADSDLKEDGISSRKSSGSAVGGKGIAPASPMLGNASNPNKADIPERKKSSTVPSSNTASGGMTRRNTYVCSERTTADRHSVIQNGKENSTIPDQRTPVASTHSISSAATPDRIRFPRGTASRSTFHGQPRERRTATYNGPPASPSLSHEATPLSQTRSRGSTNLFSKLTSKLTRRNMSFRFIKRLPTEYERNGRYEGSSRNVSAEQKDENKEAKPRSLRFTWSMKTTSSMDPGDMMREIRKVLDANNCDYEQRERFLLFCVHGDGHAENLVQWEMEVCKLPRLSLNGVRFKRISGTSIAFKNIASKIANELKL
Chain of BRSK2 (human) (Q8IWQ3 whole entry, looked up): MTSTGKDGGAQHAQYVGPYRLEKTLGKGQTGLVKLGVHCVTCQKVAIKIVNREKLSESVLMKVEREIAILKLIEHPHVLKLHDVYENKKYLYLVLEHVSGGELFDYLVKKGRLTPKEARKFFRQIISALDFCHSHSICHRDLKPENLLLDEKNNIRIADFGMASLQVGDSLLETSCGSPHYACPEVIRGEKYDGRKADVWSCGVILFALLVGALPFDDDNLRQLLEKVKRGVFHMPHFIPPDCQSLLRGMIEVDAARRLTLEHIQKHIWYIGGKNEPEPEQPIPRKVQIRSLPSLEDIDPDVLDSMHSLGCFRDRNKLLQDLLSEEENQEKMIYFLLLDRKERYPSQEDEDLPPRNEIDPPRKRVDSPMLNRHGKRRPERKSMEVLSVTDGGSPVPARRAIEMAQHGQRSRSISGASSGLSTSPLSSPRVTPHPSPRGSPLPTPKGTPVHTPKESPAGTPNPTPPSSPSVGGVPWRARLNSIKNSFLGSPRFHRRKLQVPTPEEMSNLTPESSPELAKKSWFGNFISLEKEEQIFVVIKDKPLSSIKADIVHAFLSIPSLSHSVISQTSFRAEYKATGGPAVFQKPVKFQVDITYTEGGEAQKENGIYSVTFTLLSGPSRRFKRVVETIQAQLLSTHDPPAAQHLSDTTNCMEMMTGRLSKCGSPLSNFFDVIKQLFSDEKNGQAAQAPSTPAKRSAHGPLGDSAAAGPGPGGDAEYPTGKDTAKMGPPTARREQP
Chain of CHEK1 (human) (O14757 whole entry, looked up): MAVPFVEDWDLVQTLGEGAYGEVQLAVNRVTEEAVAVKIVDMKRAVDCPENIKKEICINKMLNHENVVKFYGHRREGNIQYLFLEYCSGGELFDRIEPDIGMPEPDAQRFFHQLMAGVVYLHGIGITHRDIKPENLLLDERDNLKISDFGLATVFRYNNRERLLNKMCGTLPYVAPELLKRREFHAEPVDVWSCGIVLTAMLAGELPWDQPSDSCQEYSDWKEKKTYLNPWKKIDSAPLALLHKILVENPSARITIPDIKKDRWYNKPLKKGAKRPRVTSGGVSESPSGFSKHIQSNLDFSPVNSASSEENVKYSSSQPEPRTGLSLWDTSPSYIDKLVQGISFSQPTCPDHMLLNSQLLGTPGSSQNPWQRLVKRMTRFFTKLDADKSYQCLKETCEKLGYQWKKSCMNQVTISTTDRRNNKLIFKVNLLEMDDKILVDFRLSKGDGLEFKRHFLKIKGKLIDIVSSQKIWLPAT
Chain of PAK2 (human), Q13177 [T402E] (Q13177 whole entry T402E, looked up): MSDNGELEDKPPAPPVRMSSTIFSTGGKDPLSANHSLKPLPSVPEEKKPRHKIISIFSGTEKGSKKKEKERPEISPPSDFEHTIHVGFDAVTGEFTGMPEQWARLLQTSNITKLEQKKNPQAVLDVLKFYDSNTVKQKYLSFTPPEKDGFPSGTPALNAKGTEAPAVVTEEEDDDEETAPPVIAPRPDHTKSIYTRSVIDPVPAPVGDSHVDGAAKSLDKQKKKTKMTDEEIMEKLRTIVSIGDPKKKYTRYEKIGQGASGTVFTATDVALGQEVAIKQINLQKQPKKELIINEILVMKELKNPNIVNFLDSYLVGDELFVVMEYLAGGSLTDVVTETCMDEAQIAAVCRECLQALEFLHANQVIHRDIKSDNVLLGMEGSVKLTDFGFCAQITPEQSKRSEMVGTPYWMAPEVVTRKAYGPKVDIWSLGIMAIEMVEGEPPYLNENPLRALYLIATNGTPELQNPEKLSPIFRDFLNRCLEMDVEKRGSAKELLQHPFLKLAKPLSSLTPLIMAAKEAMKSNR
Chain of MAPK11 (human) (Q15759 whole entry, looked up): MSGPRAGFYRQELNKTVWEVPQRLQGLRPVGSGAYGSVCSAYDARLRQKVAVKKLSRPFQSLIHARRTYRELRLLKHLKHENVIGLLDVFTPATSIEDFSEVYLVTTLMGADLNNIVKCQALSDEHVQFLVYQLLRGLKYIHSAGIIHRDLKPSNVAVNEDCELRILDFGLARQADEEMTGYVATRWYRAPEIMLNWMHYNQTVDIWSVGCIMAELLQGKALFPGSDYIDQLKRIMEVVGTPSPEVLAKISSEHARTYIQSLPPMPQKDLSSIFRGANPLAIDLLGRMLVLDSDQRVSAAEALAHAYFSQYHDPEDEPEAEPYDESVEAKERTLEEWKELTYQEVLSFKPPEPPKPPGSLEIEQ
Chain of SRPK1 (human) (Q96SB4 whole entry, looked up): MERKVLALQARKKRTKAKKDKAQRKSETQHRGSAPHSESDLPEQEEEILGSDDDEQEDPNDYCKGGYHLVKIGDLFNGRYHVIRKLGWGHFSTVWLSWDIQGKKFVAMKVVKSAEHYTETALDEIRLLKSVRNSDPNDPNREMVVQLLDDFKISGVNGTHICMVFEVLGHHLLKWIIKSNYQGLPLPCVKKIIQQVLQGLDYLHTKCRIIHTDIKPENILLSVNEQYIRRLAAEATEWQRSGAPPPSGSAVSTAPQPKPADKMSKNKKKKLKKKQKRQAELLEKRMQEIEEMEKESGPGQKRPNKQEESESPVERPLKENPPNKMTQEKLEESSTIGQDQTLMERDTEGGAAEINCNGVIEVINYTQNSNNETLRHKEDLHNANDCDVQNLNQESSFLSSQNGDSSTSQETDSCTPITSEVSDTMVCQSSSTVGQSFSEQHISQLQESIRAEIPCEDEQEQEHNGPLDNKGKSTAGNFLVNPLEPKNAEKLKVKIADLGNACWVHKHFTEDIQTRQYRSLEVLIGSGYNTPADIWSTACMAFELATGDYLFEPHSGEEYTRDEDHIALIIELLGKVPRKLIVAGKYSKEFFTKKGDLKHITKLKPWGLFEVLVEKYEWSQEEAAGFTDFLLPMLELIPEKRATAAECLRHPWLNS
Chain of MAPK13 (human) (O15264 whole entry, looked up): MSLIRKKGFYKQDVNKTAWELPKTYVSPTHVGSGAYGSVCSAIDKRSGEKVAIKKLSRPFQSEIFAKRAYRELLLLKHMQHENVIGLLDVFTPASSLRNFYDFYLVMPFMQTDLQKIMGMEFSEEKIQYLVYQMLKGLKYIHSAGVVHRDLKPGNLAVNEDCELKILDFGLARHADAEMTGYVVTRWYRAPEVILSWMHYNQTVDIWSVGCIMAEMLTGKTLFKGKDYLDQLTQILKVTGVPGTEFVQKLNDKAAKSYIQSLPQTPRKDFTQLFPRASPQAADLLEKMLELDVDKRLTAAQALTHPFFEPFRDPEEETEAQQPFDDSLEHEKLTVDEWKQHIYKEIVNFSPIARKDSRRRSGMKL

O=C(N[C@@H](COc1ccc2[nH]c(=O)[nH]c2c1)c1ccccc1)c1cccn(Cc2ccc(F)c(F)c2)c1=O
residual activity ([1]; compound 0.1 µM): 105%
residual activity ([1]; compound 1.0 µM): 104%
residual activity ([1]; compound 10.0 µM): 64%
residual activity ([2]; compound 0.1 µM): 118%
residual activity ([2]; compound 1.0 µM): 90%
residual activity ([2]; compound 10.0 µM): 79%
residual activity ([3]; compound 1.0 µM): 104%
residual activity ([3]; compound 10.0 µM): 90%
residual activity ([4]; compound 0.1 µM): 96%
residual activity ([4]; compound 1.0 µM): 94%
residual activity ([4]; compound 10.0 µM): 95%
residual activity ([5]; compound 0.1 µM): 106%
residual activity ([5]; compound 1.0 µM): 95%
residual activity ([5]; compound 10.0 µM): 74%
residual activity ([6]; compound 0.1 µM): 111%
residual activity ([6]; compound 1.0 µM): 103%
residual activity ([6]; compound 10.0 µM): 107%
residual activity ([7]; compound 0.1 µM): 95%
residual activity ([7]; compound 1.0 µM): 92%
residual activity ([7]; compound 10.0 µM): 51%
residual activity ([8]; compound 0.1 µM): 106%
residual activity ([8]; compound 1.0 µM): 113%
residual activity ([8]; compound 10.0 µM): 91%
residual activity ([9]; compound 0.1 µM): 113%
residual activity ([9]; compound 1.0 µM): 97%
residual activity ([9]; compound 10.0 µM): 79%
residual activity ([10]; compound 0.1 µM): 109%
residual activity ([10]; compound 1.0 µM): 109%
residual activity ([10]; compound 10.0 µM): 93%
residual activity ([11]; compound 0.1 µM): 118%
residual activity ([11]; compound 10.0 µM): 121%
residual activity ([12]; compound 0.1 µM): 96%
residual activity ([12]; compound 1.0 µM): 97%
residual activity ([12]; compound 10.0 µM): 75%
residual activity ([13]; compound 0.1 µM): 102%
residual activity ([13]; compound 1.0 µM): 101%
residual activity ([13]; compound 10.0 µM): 94%
residual activity ([14]; compound 0.1 µM): 99%
residual activity ([14]; compound 1.0 µM): 100%
residual activity ([14]; compound 10.0 µM): 86%
residual activity ([15]; compound 0.1 µM): 92%
residual activity ([15]; compound 1.0 µM): 96%
residual activity ([15]; compound 10.0 µM): 90%
residual activity ([16]; compound 0.1 µM): 105%
residual activity ([16]; compound 1.0 µM): 105%
residual activity ([16]; compound 10.0 µM): 103%
residual activity ([17]; compound 0.1 µM): 98%
residual activity ([17]; compound 1.0 µM): 99%
residual activity ([17]; compound 10.0 µM): 101%
residual activity ([18]; compound 0.1 µM): 109%
residual activity ([18]; compound 1.0 µM): 101%
residual activity ([18]; compound 10.0 µM): 91%
residual activity ([19]; compound 0.1 µM): 101%
residual activity ([19]; compound 1.0 µM): 90%
residual activity ([19]; compound 10.0 µM): 101%
residual activity ([20]; compound 0.1 µM): 100%
residual activity ([20]; compound 1.0 µM): 110%
residual activity ([20]; compound 10.0 µM): 115%
residual activity ([21]; compound 0.1 µM): 91%
residual activity ([21]; compound 1.0 µM): 97%
residual activity ([21]; compound 10.0 µM): 94%
residual activity ([22]; compound 0.1 µM): 100%
residual activity ([22]; compound 10.0 µM): 114%
residual activity ([23]; compound 0.1 µM): 108%
residual activity ([23]; compound 1.0 µM): 100%
residual activity ([23]; compound 10.0 µM): 95%
residual activity ([24]; compound 0.1 µM): 99%
residual activity ([24]; compound 1.0 µM): 93%
residual activity ([24]; compound 10.0 µM): 83%
residual activity ([25]; compound 0.1 µM): 92%
residual activity ([25]; compound 1.0 µM): 100%
residual activity ([25]; compound 10.0 µM): 87%
residual activity ([26]; compound 0.1 µM): 106%
residual activity ([26]; compound 1.0 µM): 99%
residual activity ([26]; compound 10.0 µM): 99%
residual activity ([27]; compound 0.1 µM): 113%
residual activity ([27]; compound 1.0 µM): 109%
residual activity ([27]; compound 10.0 µM): 79%
residual activity ([28]; compound 0.1 µM): 100%
residual activity ([28]; compound 1.0 µM): 117%
residual activity ([29]; compound 0.1 µM): 103%
residual activity ([29]; compound 1.0 µM): 108%
residual activity ([29]; compound 10.0 µM): 95%
residual activity ([30]; compound 0.1 µM): 105%
residual activity ([30]; compound 1.0 µM): 112%
residual activity ([30]; compound 10.0 µM): 108%
residual activity ([31]; compound 0.1 µM): 106%
residual activity ([31]; compound 1.0 µM): 102%
residual activity ([31]; compound 10.0 µM): 102%
residual activity ([32]; compound 0.1 µM): 107%
residual activity ([32]; compound 1.0 µM): 114%
residual activity ([32]; compound 10.0 µM): 101%
residual activity ([33]; compound 0.1 µM): 102%
residual activity ([33]; compound 1.0 µM): 105%
residual activity ([33]; compound 10.0 µM): 100%
residual activity ([34]; compound 0.1 µM): 111%
residual activity ([34]; compound 1.0 µM): 126%
residual activity ([34]; compound 10.0 µM): 119%
residual activity ([35]; compound 0.1 µM): 109%
residual activity ([35]; compound 1.0 µM): 132%
residual activity ([35]; compound 10.0 µM): 102%
residual activity ([36]; compound 0.1 µM): 104%
residual activity ([36]; compound 1.0 µM): 105%
residual activity ([36]; compound 10.0 µM): 95%
